Reference: publication PMC11969537 (ACS Chemical Neuroscience, 2025)

Molecular target: cathepsin B (Mus musculus, UniProt P10605)
Experiment: fluorogenic protease assay with Z-Phe-Arg-AMC at pH […]
Assay type: biochemical

Chain of cathepsin B (P10605 80-333): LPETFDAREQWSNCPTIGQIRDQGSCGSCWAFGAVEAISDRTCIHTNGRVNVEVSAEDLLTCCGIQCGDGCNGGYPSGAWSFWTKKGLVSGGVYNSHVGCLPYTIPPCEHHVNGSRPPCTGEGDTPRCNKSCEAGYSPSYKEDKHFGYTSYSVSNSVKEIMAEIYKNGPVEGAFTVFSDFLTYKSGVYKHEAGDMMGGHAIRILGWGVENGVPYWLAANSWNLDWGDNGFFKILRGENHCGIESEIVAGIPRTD

Q: With `Cc1cccc(C)c1C(=O)OCC(=O)[C@H](CCCCN)NC(=O)[C@H](CCCNC(=N)N)NC(=O)OCc1ccccc1` [Z-Arg-Lys-AOMK] as the compound, how does the IC50 read?
A: 0.025 µM
